Measured values from patent US9775844B2, “Heterocyclic compounds and uses thereof” (Infinity Pharmaceuticals, Inc., priority 2014, dated 2017).

Assays:
[1] = target: PI3K α (Homo sapiens (Human), UniProt P42336); assay: PI3-Kinase Promega ADP-Glo Max assay; type: biochemical
Protocol: (§1) Promega ADP-Glo Max assay kit (Cat. No. V7002) was utilized to determine IC50 values for α, β, δ and γ isoforms of human Class I PI3 kinases (Millipore). […] Reactions were incubated at room temperature for 2 hours followed by addition of 25 uL of stop solution. After a 40-minute incubation at room temperature, 50 uL of Promega detection mix was added followed by incubation for 1 hour at room temperature. Plates were then read on Envision plate reader in lunimescence mode. Data was converted to % inhibition using the following equation below:
(§2) [formula] where S is the sample luminescence, Pos is a positive control without added PI3K, Neg is the negative control without added compound. Data was then plotted as % inhibition vs compound concentration.

[2] = target: PI3K β (Homo sapiens (Human), UniProt P42338); assay: PI3-Kinase Promega ADP-Glo Max assay; type: biochemical
Protocol: as §1, §2

[3] = target: PI3K δ (Homo sapiens (Human), UniProt O00329); assay: PI3-Kinase Promega ADP-Glo Max assay; type: biochemical
[4] = target: PI3K γ (Homo sapiens (Human), UniProt P48736); assay: PI3-Kinase Promega ADP-Glo Max assay; type: biochemical
Protocol: as §1, §2

[5] = target: PI3K-δ in RAJI cells (Homo sapiens (Human), UniProt O00329); assay: RAJI p110 δ assay (PI3K-δ selective cellular assay, phospho-AKT); type: cell-based; settings: phospho-AKT; read-out: RAJI p110 δ assay IC50
[6] = target: PI3K-γ in RAW264.7 macrophages (Mus musculus (Mouse), UniProt Q9JHG7); assay: Raw264.7 p110 γ assay (PI3K-γ selective cellular assay, C5a-stimulated phospho-AKT); type: cell-based; settings: for IC50: phospho-AKT, read-out: Raw264.7 p110 γ assay IC50
Chain of PI3K-γ in RAW264.7 macrophages (Q9JHG7 whole entry): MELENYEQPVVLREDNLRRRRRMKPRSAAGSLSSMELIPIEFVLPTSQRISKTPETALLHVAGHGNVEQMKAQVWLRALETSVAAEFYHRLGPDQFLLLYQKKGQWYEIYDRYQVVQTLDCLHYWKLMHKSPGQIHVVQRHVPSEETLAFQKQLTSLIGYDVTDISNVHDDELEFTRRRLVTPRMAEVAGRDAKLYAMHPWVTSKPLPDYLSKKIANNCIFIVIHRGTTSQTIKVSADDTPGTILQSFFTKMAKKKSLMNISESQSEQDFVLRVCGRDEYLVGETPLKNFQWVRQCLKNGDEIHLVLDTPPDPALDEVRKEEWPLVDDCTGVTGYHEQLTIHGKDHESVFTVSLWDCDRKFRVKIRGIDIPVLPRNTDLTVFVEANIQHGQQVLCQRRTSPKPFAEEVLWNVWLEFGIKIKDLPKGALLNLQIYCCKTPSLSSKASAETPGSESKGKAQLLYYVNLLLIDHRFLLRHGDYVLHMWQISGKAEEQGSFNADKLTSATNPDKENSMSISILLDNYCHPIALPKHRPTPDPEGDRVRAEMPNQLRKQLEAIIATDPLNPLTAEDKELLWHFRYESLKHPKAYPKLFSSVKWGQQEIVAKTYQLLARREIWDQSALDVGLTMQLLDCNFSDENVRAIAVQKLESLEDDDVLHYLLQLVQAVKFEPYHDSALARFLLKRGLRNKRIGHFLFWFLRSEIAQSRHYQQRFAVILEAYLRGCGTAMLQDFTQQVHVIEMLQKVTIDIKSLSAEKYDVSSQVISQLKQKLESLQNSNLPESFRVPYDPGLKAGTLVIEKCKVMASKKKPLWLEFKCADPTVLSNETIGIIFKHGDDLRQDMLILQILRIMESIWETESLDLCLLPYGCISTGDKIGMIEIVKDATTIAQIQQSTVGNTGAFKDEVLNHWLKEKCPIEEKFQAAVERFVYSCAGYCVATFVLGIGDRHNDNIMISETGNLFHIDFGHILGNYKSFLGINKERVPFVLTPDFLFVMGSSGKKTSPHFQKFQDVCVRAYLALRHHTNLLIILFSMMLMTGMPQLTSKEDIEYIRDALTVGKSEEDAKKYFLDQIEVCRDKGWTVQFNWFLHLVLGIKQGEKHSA
Description: Briefly, serum-starved RAW264.7 cells are stimulated with a known GPCR agonist C5a. […] Cells can be treated with test compounds prior to, simultaneously with, or subsequent to the stimulation by C5a. RAW 264.7 cells respond to the complement component fragment C5a through activation of the C5a receptor, and the C5a receptor activates macrophages and induces cell migration.

Chain of PI3K β (P42338 whole entry): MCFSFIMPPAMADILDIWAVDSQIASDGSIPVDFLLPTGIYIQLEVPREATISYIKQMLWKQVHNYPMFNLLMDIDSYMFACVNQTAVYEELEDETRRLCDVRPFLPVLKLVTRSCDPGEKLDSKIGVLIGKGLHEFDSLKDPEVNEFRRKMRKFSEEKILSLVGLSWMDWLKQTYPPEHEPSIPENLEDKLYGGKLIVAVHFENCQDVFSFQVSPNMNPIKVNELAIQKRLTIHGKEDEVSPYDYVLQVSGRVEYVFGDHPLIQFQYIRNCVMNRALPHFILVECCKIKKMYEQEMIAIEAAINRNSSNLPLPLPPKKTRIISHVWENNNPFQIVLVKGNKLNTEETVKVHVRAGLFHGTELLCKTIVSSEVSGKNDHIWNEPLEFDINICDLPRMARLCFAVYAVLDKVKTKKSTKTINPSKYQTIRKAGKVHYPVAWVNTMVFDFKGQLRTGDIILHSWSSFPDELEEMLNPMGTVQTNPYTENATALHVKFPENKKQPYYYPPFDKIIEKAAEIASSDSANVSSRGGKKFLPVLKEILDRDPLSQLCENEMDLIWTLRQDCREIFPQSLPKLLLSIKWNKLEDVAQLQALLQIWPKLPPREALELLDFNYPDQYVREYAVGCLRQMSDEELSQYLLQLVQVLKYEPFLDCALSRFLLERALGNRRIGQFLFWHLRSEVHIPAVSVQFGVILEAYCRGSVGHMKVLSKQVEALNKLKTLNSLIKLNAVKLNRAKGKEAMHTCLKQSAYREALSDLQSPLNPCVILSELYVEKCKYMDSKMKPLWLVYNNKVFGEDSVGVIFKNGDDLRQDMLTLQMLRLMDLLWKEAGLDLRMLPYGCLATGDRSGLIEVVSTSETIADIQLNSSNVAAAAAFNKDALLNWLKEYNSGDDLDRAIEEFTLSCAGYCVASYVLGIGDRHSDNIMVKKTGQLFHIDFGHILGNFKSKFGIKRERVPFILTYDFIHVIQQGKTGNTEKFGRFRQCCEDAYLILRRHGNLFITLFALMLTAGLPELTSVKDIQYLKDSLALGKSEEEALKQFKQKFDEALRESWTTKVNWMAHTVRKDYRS
Chain of PI3K β (P27986 whole entry partner): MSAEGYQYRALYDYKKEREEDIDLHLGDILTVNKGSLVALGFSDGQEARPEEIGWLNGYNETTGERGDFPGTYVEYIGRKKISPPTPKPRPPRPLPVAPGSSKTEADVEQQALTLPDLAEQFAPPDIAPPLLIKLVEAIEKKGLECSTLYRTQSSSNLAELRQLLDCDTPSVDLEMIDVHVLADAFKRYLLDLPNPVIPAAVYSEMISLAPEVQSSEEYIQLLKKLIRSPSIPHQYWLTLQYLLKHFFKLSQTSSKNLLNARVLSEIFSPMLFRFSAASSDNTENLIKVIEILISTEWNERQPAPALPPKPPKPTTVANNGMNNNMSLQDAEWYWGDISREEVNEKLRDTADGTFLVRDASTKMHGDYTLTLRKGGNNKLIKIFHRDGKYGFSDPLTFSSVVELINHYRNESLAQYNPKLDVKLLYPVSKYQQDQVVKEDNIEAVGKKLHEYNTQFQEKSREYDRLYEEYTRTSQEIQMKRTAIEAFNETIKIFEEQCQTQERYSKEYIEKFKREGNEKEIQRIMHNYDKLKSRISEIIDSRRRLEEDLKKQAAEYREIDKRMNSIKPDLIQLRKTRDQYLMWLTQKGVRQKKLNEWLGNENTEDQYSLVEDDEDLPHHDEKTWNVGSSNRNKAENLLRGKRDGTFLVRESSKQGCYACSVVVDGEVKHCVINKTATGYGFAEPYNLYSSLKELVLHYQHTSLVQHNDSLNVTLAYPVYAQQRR
Chain of PI3K δ (O00329 whole entry): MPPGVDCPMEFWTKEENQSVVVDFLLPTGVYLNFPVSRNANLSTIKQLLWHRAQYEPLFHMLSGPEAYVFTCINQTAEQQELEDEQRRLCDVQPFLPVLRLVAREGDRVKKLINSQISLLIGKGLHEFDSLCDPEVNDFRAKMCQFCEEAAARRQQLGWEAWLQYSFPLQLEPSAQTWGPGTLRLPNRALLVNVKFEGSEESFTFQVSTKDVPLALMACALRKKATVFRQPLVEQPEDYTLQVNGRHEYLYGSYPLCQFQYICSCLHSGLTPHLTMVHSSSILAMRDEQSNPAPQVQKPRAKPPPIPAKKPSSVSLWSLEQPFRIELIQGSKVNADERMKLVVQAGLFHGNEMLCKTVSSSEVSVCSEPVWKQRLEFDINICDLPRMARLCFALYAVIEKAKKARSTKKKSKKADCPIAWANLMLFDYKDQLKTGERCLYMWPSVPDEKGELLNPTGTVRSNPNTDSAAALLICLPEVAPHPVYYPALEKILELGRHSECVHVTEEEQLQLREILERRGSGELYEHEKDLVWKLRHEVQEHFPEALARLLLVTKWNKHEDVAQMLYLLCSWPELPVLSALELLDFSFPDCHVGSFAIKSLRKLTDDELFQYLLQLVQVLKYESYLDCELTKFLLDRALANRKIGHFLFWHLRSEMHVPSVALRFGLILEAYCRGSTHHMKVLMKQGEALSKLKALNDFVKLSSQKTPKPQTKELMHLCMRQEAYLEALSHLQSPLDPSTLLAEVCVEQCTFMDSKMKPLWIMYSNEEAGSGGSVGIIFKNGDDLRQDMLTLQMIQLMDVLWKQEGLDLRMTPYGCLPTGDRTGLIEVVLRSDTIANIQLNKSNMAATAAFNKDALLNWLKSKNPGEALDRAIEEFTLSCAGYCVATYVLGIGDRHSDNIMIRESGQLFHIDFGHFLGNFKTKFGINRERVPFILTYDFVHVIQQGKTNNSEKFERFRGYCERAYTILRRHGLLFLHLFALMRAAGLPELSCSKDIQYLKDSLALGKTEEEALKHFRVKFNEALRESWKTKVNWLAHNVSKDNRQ
Chain of PI3K δ (P27986 whole entry partner): as the sequence (P27986 whole entry partner) above
Chain of PI3K-δ in RAJI cells (O00329 whole entry): as the sequence (O00329 whole entry) above
Chain of PI3K-δ in RAJI cells (P27986 whole entry partner): as the sequence (P27986 whole entry partner) above

Structure (SMILES): C[C@H](NC(=O)c1c(N)nn2cccnc12)c1cc2cccc(C#Cc3ccnn3C)c2c(=O)n1-c1ccccc1 [Compound 73]
- IC50 [1]: 5 to 10 µM
- IC50 [2]: 5 to 10 µM
- IC50 [3]: 5 to 10 µM
- IC50 [4]: 0.1 to 0.5 µM
- PI3K δ/PI3K γ IC50 (selectivity) [4]: X (X = 10 to <50)
- IC50 [5]: 0.5 to 1 µM
- RAJIδ/Raw264.7 γ IC50 (selectivity) [6]: Y (Y = 50 to <850)
- IC50 [6]: 0.001 to 0.05 µM

Structure (SMILES): C[C@H](NC(=O)c1c(N)nn2cccnc12)c1cc2cccc(C#CC3CNC3)c2c(=O)n1-c1ccccc1 [Compound 74]
- IC50 [1]: 5 to 10 µM
- IC50 [2]: 5 to 10 µM
- IC50 [3]: 1 to 5 µM
- IC50 [4]: 0.5 to 1 µM
- PI3K δ/PI3K γ IC50 (selectivity) [4]: W (key: V = 0.1 to 1; W = >1 to <10; X = 10 to <50; Y = 50 to <850)
- IC50 [5]: 1 to 10 µM
- RAJIδ/Raw264.7 γ IC50 (selectivity) [6]: W (key: V = 0.1 to 1; W = >1 to <10; X = 10 to <50; Y = 50 to <850)
- IC50 [6]: 0.1 to 10 µM

Structure (SMILES): Cc1ncsc1C#Cc1cccc2cc([C@H](C)NC(=O)c3c(N)nn4cccnc34)n(-c3ccccc3)c(=O)c12 [Compound 75]
- IC50 [1]: 5 to 10 µM
- IC50 [2]: 5 to 10 µM
- IC50 [3]: 5 to 10 µM
- IC50 [4]: 1 to 5 µM
- PI3K δ/PI3K γ IC50 (selectivity) [4]: W (W = >1 to <10)
- IC50 [5]: 1 to 10 µM
- RAJIδ/Raw264.7 γ IC50 (selectivity) [6]: Y (Y = 50 to <850)
- IC50 [6]: 0.001 to 0.05 µM

Structure (SMILES): Cc1ncc(C#Cc2cccc3cc([C@H](C)NC(=O)c4c(N)nn5cccnc45)n(-c4ccccc4)c(=O)c23)s1 [Compound 76]
- IC50 [1]: 5 to 10 µM
- IC50 [2]: 5 to 10 µM
- IC50 [3]: 5 to 10 µM
- IC50 [4]: 0.1 to 0.5 µM
- PI3K δ/PI3K γ IC50 (selectivity) [4]: Y (Y = 50 to <850)
- IC50 [5]: 0.1 to 0.5 µM
- RAJIδ/Raw264.7 γ IC50 (selectivity) [6]: X (X = 10 to <50)
- IC50 [6]: 0.001 to 0.05 µM

Structure (SMILES): Cc1ccc(C#Cc2cccc3cc([C@H](C)NC(=O)c4c(N)nn5cccnc45)n(-c4ccccc4)c(=O)c23)cn1 [Compound 77]
- IC50 [1]: 5 to 10 µM
- IC50 [2]: 5 to 10 µM
- IC50 [3]: 5 to 10 µM
- IC50 [4]: 0.001 to 0.1 µM
- PI3K δ/PI3K γ IC50 (selectivity) [4]: Y (Y = 50 to <850)
- IC50 [5]: 0.5 to 1 µM
- RAJIδ/Raw264.7 γ IC50 (selectivity) [6]: Y (Y = 50 to <850)
- IC50 [6]: 0.001 to 0.05 µM

Structure (SMILES): Cc1scnc1C#Cc1cccc2cc([C@H](C)NC(=O)c3c(N)nn4cccnc34)n(-c3ccccc3)c(=O)c12 [Compound 78]
- IC50 [1]: 5 to 10 µM
- IC50 [2]: 5 to 10 µM
- IC50 [3]: 5 to 10 µM
- IC50 [4]: 0.1 to 0.5 µM
- PI3K δ/PI3K γ IC50 (selectivity) [4]: X (X = 10 to <50)
- IC50 [5]: 0.1 to 0.5 µM
- RAJIδ/Raw264.7 γ IC50 (selectivity) [6]: X (X = 10 to <50)
- IC50 [6]: 0.001 to 0.05 µM

Structure (SMILES): Cc1nc(C)c(C#Cc2cccc3cc([C@H](C)NC(=O)c4c(N)nn5cccnc45)n(-c4ccccc4)c(=O)c23)s1 [Compound 79]
- IC50 [1]: 5 to 10 µM
- IC50 [2]: 5 to 10 µM
- IC50 [3]: 5 to 10 µM
- IC50 [4]: 0.5 to 1 µM
- PI3K δ/PI3K γ IC50 (selectivity) [4]: X (X = 10 to <50)
- IC50 [5]: 1 to 10 µM
- RAJIδ/Raw264.7 γ IC50 (selectivity) [6]: Y (Y = 50 to <850)
- IC50 [6]: 0.001 to 0.05 µM

Structure (SMILES): C[C@H](NC(=O)c1c(N)nn2cccnc12)c1cc2cccc(C#Cc3cn[nH]c3)c2c(=O)n1-c1ccccc1 [Compound 80]
- IC50 [1]: 1 to 5 µM
- IC50 [2]: 1 to 5 µM
- IC50 [3]: 5 to 10 µM
- IC50 [4]: 0.001 to 0.1 µM
- PI3K δ/PI3K γ IC50 (selectivity) [4]: Y (key: V = 0.1 to 1; W = >1 to <10; X = 10 to <50; Y = 50 to <850)
- IC50 [5]: 0.1 to 0.5 µM
- RAJIδ/Raw264.7 γ IC50 (selectivity) [6]: Y (key: V = 0.1 to 1; W = >1 to <10; X = 10 to <50; Y = 50 to <850)
- IC50 [6]: 0.001 to 0.05 µM

Structure (SMILES): CC(=O)N1CCC(C#Cc2cccc3cc([C@H](C)NC(=O)c4c(N)nn5cccnc45)n(-c4ccccc4)c(=O)c23)CC1 [Compound 82]
- IC50 [1]: 5 to 10 µM
- IC50 [2]: 5 to 10 µM
- IC50 [3]: 5 to 10 µM
- IC50 [4]: 0.1 to 0.5 µM
- PI3K δ/PI3K γ IC50 (selectivity) [4]: X (key: V = 0.1 to 1; W = >1 to <10; X = 10 to <50; Y = 50 to <850)
- IC50 [5]: 0.5 to 1 µM
- RAJIδ/Raw264.7 γ IC50 (selectivity) [6]: X (key: V = 0.1 to 1; W = >1 to <10; X = 10 to <50; Y = 50 to <850)
- IC50 [6]: 0.001 to 0.05 µM
